Earlier results in Sander's compilation of Henry's law constants (doi:10.1016/j.chemosphere.2021.129858).

Assay: Henry solubility constant Hcp at 298.15 K (mol/(m3 Pa))
Details: reference: Schwardt et al. (2021); cited value

Going from `ClCC(Cl)(Cl)Cl` [1,1,1,2-tetrachloroethane] to `ClC(Cl)(Cl)Cl` [tetrachloromethane], the “Henry solubility constant Hcp” value falls from 0.005 to 0.00034.

First: CC(Cl)(Cl)Cl [1,1,1-trichloroethane]
Second: ClCC(Cl)Cl [1,1,2-trichloroethane]
The “Henry solubility constant Hcp” value of the first is lower: 0.0006 for the first, 0.011 for the second.

Compared with `ClC(Cl)C(Cl)Cl` [1,1,2,2-tetrachloroethane], `CC(Cl)CCl` (stereo not drawn) [1,2-dichloropropane] is lower in “Henry solubility constant Hcp” value: 0.023 for the first, 0.0037 for the second.

Going from `C=C(Cl)Cl` [1,1-dichloroethene] to `ClC=C(Cl)Cl` [trichloroethene], the “Henry solubility constant Hcp” value rises from 0.00037 to 0.0011.

Compared with `Cc1ccccc1C` [1,2-dimethylbenzene], `Cc1ccccc1` [methylbenzene] is lower in “Henry solubility constant Hcp” value: 0.002 for the first, 0.0016 for the second.

Going from `Clc1cccc(Cl)c1` [1,3-dichlorobenzene] to `Clc1ccc(Cl)cc1` [1,4-dichlorobenzene], the “Henry solubility constant Hcp” value rises from 0.0031 to 0.0032.

Going from `Cc1cccc(C)c1` [1,3-dimethylbenzene] to `Cc1ccc(C)cc1` [1,4-dimethylbenzene], the “Henry solubility constant Hcp” value rises from 0.0014 to 0.0015.

First: Cc1ccc(Cl)cc1Cl [2,4-dichloro-1-methylbenzene]
Second: Clc1ccccc1 [chlorobenzene]
The “Henry solubility constant Hcp” value of the first is higher: 0.0027 for the first, 0.0024 for the second.

Going from `c1cc2c3c(cccc3c1)CC2` [acenaphthene] to `c1ccc2c(c1)-c1cccc3cccc-2c13` [benzo[jk]fluorene], the “Henry solubility constant Hcp” value rises from 0.054 to 0.58.

Going from `c1ccc2cc3ccccc3cc2c1` [anthracene] to `c1ccc2ccccc2c1` [naphthalene], the “Henry solubility constant Hcp” value falls from 0.18 to 0.021.

First: c1ccccc1 [benzene]
Second: CCc1ccccc1 [ethylbenzene]
The “Henry solubility constant Hcp” value of the first is higher: 0.0018 for the first, 0.0014 for the second.

Going from `CCCl` [chloroethane] to `ClCCl` [dichloromethane], the “Henry solubility constant Hcp” value rises from 0.00081 to 0.0039.

Going from `C=CCl` [chloroethene] to `ClC(Cl)=C(Cl)Cl` [tetrachloroethene], the “Henry solubility constant Hcp” value rises from 0.00041 to 0.00057.

Going from `c1ccc2c(c1)ccc1ccccc12` [phenanthrene] to `CCCc1ccccc1` [propylbenzene], the “Henry solubility constant Hcp” value falls from 0.21 to 0.0009.
